Literature values as cited in EP0467998B1, “PEPTIDES FROM RETINOBLASTOMA GENE PRODUCTS AND ANTIBODIES THERETO” (BAYLOR COLLEGE OF MEDICINE, priority 1989, dated 1990).

Details: individual amino acid, Hopp and Woods (1981)

SMILES | Hydrophilicity Value
C[C@H](N)C(=O)O [Ala] | -0.5
N=C(N)NCCC[C@H](N)C(=O)O [Arg] | 3.0
NC(=O)C[C@H](N)C(=O)O [Asn] | 0.2
N[C@@H](CC(=O)O)C(=O)O [Asp] | 3.0
N[C@@H](CS)C(=O)O [Cys] | -1.0
N[C@@H](CCC(=O)O)C(=O)O [Glu] | 3.0
NCC(=O)O [Gly] | 0.0
N[C@@H](Cc1c[nH]cn1)C(=O)O [His] | -0.5
CC[C@H](C)[C@H](N)C(=O)O [Ile] | -1.8
NCCCC[C@H](N)C(=O)O [Lys] | 3.0
CSCC[C@H](N)C(=O)O [Met] | -1.3
N[C@@H](Cc1ccccc1)C(=O)O [Phe] | -2.5
O=C(O)[C@@H]1CCCN1 [Pro] | 0.0
N[C@@H](CO)C(=O)O [Ser] | 0.3
C[C@@H](O)[C@H](N)C(=O)O [Thr] | -0.4
N[C@@H](Cc1c[nH]c2ccccc12)C(=O)O [Trp] | -3.4
N[C@@H](Cc1ccc(O)cc1)C(=O)O [Tyr] | -2.3
CC(C)[C@H](N)C(=O)O [Val] | -1.5
